Test results reported in patent US20050096327A1, “Novel norepinephrine reuptake inhibitors for the treatment of central nervous system disorders” (priority 2003, published 2005).

Columns and labels:
[1] = target: T1, human serotonin transporter (Homo sapiens, UniProt P31645); experiment: hSERT receptor binding ([125I]-RTI-55, membranes of transfected HEK-293 cells); conditions: 50 pM [125I]-RTI-55, 90 min room temperature; IC50 converted by Cheng-Prusoff
T1 construct: host or cells: HEK-293
Protocol: (§1) Cell pastes of HEK-293 cells transfected with the human serotonin transporter were supplied by the Pfizer Ann Arbor Protein Expression and Production Group. Pellets were resuspended in 400 to 700 mL of Krebs-HEPES assay buffer (25 mM HEPES, 122 mM NaCl, 3 mM KCl, 1.2 mM MgSO4, 1.3 mM CaCl2, and 11 mM glucose, pH 7.4) with a Polytron homogenizer at Setting 7 for 30 seconds. Aliquots of membranes (˜2.5 mg/mL protein) were stored in liquid nitrogen until used.
Assays were set up in FlashPlates pre-coated with 0.1% PEI in a total volume of 250 μL containing: drug (10^−5M to 10^−12M), cell membranes, and 50 pM [^125I]-RTI-55 (Perkin Elmer, NEX-272; specific activity 2200 Ci/mmol). The reaction was incubated and gently agitated for 90 minutes at room temperature, and terminated by removal of assay volume. Plates were covered, and bound [^125I]-RTI-55 was determined using a Wallac Trilux Beta Plate Counter. Test compounds were run in duplicate, and specific binding was defined as the difference between binding in the presence and absence of 10 μM citalopram.
Excel and GraphPad Prism software were used for data calculation and analysis. IC50 values were converted to Ki values using the Cheng-Prusoff equation. The Ki values for the hSERT are reported below in Table 1.

[2] = target: T2, human norepinephrine transporter (Homo sapiens, UniProt P23975); experiment: hNET receptor binding ([125I]-RTI-55, membranes of transfected HEK-293 cells); conditions: 50 pM [125I]-RTI-55, 90 min room temperature; IC50 converted by Cheng-Prusoff
T2 construct: host or cells: HEK-293
Protocol: as §1, with “norepinephrine” for “serotonin”, “group.” for “Group.”, “ml” for “mL”, “setting” for “Setting”, “sec.” for “seconds.”, “(5 mg/ml” for “(˜2.5 mg/mL”
The binding assay was set up in Beckman deep-well polypropylene plates with a total volume of 250 μl containing: drug (10^−5M to 10^−12M), cell membranes, and 50 pM [^125I]-RTI-55 (Perkin Elmer, NEX-272; specific activity 2200 Ci/mmol). The reaction was incubated by gentle agitation for 90 min at room temperature and was terminated by filtration through Whatman GF/C filter plates using a Brandel 96-well plate harvester. Scintillation fluid (100 μl) was added to each well, and bound [^125I]-RTI-55 was determined using a Wallac Trilux Beta Plate Counter. Test compounds were run in duplicate, and specific binding was defined as the difference between binding in the presence and absence of 10 μM desipramine.
Excel and GraphPad Prism software were used for data calculation and analysis. IC50 values were converted to Ki values using the Cheng-Prusoff equation. The Ki values for the hNET are reported below in Table 1.

T2 sequence (P23975 whole entry): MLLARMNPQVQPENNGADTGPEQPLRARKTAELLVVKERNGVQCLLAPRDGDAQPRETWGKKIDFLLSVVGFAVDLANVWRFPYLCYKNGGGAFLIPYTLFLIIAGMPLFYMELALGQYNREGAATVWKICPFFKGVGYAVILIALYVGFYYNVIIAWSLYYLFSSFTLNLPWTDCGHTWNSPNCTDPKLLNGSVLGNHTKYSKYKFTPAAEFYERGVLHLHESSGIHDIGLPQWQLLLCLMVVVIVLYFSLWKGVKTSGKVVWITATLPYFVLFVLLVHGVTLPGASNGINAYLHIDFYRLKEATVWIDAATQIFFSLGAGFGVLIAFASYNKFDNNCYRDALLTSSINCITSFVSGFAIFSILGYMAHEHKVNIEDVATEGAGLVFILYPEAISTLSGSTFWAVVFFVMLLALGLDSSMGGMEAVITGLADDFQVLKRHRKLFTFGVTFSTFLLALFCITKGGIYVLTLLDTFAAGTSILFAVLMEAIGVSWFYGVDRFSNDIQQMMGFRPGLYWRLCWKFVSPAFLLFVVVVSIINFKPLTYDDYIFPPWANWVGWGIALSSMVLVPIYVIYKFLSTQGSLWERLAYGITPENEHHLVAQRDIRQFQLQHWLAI
T1 sequence (P31645 whole entry): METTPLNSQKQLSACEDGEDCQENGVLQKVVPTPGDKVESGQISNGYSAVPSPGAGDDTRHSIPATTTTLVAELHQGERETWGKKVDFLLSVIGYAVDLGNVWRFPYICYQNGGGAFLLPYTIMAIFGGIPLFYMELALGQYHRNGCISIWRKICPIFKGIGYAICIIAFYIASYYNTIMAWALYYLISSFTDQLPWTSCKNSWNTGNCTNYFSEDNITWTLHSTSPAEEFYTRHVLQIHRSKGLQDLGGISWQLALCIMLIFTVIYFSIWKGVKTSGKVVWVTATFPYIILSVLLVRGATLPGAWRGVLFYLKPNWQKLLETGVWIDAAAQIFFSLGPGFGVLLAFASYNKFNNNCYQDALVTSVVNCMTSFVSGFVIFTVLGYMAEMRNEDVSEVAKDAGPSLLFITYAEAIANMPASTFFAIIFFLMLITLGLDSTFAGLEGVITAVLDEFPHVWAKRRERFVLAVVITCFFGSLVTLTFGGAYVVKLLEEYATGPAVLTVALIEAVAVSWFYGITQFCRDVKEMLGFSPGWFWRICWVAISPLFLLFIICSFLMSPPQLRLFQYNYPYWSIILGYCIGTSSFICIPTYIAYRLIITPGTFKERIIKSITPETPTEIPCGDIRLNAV

Molecule	Ki [1] [nM]	Ki [2] [nM]
Fc1ccc2c(-c3c(F)cccc3F)nc(N[C@H]3CCNC3)nc2c1 [Example 100, S-[4-(2,6-Difluoro-phenyl)-7-fluoro-quinazolin-2-yl]-pyrrolidin-3-yl-amine]	649	29.3
Fc1ccc2c(-c3ccccc3)nc(N3CCNCC3)nc2c1 [Example 97, 7-Fluoro-4-phenyl-2-piperazin-1-yl-quinazoline]	49.6	13.8
Clc1ccc(-c2nc(N3CCNCC3)nc3ccccc23)cc1Cl [Example 115, 4-(3,4-dichloro-phenyl)-2-piperazin-1-yl-quinazoline]	332	114
Fc1ccc2c(-c3c(F)cccc3F)nc(N[C@@H]3CCNC3)nc2c1 [Example 84, R-[4-(2,6-Difluoro-phenyl)-7-fluoro-quinazolin-2-yl]-pyrrolidin-3-yl-amine]	653	49.8
C[C@H]1CNCCN1c1nc(-c2c(F)cccc2F)c2ccc(F)cc2n1 [Example 107, S-4-(2,6-Difluoro-phenyl)-7-fluoro-2-(2-methyl-piperazin-1-yl)-quinazoline]	30.8	47.3
N[C@@H]1CCN(c2nc(-c3cccc(F)c3F)c3ccccc3n2)C1 [Example 102, R-1-[4-(2,3-Difluoro-phenyl)-quinazolin-2-yl]-pyrrolidin-3-ylamine]	155	11.4
Cc1cc(F)ccc1-c1nc(N2CCNCC2)nc2cc(F)ccc12 [Example 117, 7-Fluoro-4-(4-fluoro-2-methyl-phenyl)-2-piperazin-1-yl-quinazoline]	114	32.9
R-4-(2,4-Difluoro-phenyl)-7-fluoro-2-(2-methyl-piperazin-1-yl)-quinazoline [Example 138]	24.6	35.4
Fc1ccc2c(-c3c(F)cccc3F)nc(N3CCNCC3)nc2c1 [Example 98, 4-(2,6-Difluoro-phenyl)-7-fluoro-2-piperazin-1-yl-quinazoline]	32	20
C[C@H]1CNCCN1c1nc(-c2c(F)cccc2Cl)c2ccccc2n1 [Example 85, S-4-(2-Chloro-6-fluoro-phenyl)-2-(2-methyl-piperazin-1-yl)-quinazoline]	265	26.3
N[C@@H]1CCN(c2nc(-c3c(F)cccc3F)c3ccc(F)cc3n2)C1 [Example 93, R-1-[4-(2,6-Difluoro-phenyl)-7-fluoro-quinazolin-2-yl]-pyrrolidin-3-ylamine]	50.6	21.9
Fc1ccc2nc(N3CCNCC3)nc(-c3ccccc3)c2c1 [Example 92, 6-Fluoro-4-phenyl-2-piperazin-1-yl-quinazoline]	53	33.8
Fc1ccc2c(-c3cccc(F)c3F)nc(N3CCNCC3)nc2c1 [Example 111, 4-(2,3-Difluoro-phenyl)-7-fluoro-2-piperazin-1-yl-quinazoline]	37.1	18.6
Fc1ccc(-c2nc(N3CCNCC3)nc3ccc(F)cc23)c(F)c1 [Example 122, 4-(2,4-Difluoro-phenyl)-6-fluoro-2-piperazin-1-yl-quinazoline]	15.5	12.1
N[C@@H]1CCN(c2nc(-c3cccc(F)c3F)c3ccc(F)cc3n2)C1 [Example 110, R-1-[4-(2,3-Difluoro-phenyl)-7-fluoro-quinazolin-2-yl]-pyrrolidin-3-yl-amine]	57.1	13.6
Fc1cc(F)cc(-c2nc(N3CCNCC3)nc3ccccc23)c1 [Example 126, 4-(3,5-difluoro-phenyl)-2-piperazin-1-yl-quinazoline]	107	3.7
CN1CCN(c2nc(-c3c(F)cccc3F)c3ccc(F)cc3n2)CC1 [Example 83, 4-(2,6-Difluoro-phenyl)-7-fluoro-2-(4-methyl-piperazin-1-yl)-quinazoline]	314	37.6
Fc1ccc2c(-c3ccc(F)c(F)c3)nc(N3CCNCC3)nc2c1 [Example 119, 4-(3,4-Difluoro-phenyl)-7-fluoro-2-piperazin-1-yl-quinazoline]	22.7	7.3
CN1CCN(c2nc(-c3ccc(F)c(F)c3)c3ccccc3n2)CC1 [Example 103, 4-(3,4-Difluoro-phenyl)-2-(4-methyl-piperazin-1-yl)-quinazoline]	645	
CN1CCN(c2nc(-c3ccc(F)c(F)c3)c3ccccc3n2)CC1 [Example 114, 4-(3,4-Difluoro-phenyl)-2-(4-methyl-piperazin-1-yl)-quinazoline]	1090	

Results, then the molecule that gave them:

Ki [1] [nM]	Ki [2] [nM]	Molecule
6030	207	CNC1CCN(c2nc(-c3cccc(F)c3F)c3ccccc3n2)CC1 [Example 158]
76.5	43.1	COc1ccccc1-c1nc(N2CCNCC2)nc2cc(F)ccc12 [Example 136, 4-(2-Methoxy-phenyl)-7-fluoro-2-piperazin-1-yl-quinazoline]
25.6	28	Fc1ccc(-c2nc(N3CCNCC3)nc3cc(F)c(F)cc23)c(F)c1 [Example 147, 4-(2,4-Difluoro-phenyl)-6,7-difluoro-2-piperazin-1-yl-quinazoline]
5540	384	CNC1CCN(c2nc(-c3c(F)cccc3F)c3ccccc3n2)CC1 [Example 151, {1-[4-(2,6-Difluoro-phenyl)-quinazolin-2-yl]-piperidin-4-yl}-methyl-amine]
382	3480	Fc1ccc(-c2nc(N3CCNCC3)c3ccccc3n2)c(F)c1 [Example 161, 2-(2,4-Difluoro-phenyl)-4-piperazin-1-yl-quinazoline]
> 10000	150	CNC1CCN(c2nc(-c3ccc(F)cc3F)c3ccccc3n2)CC1 [Example 153, {1-[4-(2,4-Difluoro-phenyl)-quinazolin-2-yl]-piperidin-4-yl}-methyl-amine]
976	60.7	Fc1ccc2c(-c3ccccc3C(F)(F)F)nc(N3CCNCC3)nc2c1 [Example 160, 7-Fluoro-2-piperazin-1-yl-4-(2-trifluoromethyl-phenyl)-quinazoline]
68.8	66.1	CC(C)[C@H]1CNCCN1c1nc(-c2ccc(F)cc2F)c2ccccc2n1 [Example 167, S-4-(2,4-Difluoro-phenyl)-2-(2-isopropyl-piperazin-1-yl)-quinazoline]
441	12.6	Fc1ccc2c(-c3ccccc3)nc(N3CCNCC3)nc2c1F [Example 163, 7,8-Difluoro-4-phenyl-2-piperazin-1-yl-quinazoline]
1590	22	Fc1cccc2c(-c3ccccc3)nc(N3CCNCC3)nc12 [Example 133, 8-Fluoro-4-phenyl-2-piperazin-1-yl-quinazoline]
52.8	11.4	Fc1ccc2c(-c3c(F)cccc3F)nc(C3CCNCC3)nc2c1 [Example 162, 4-(2,6-Difluoro-phenyl)-7-fluoro-2-piperidin-4-yl-quinazoline]
62.6	30.3	Fc1ccc(-c2nc(N3CCNCC3)nc3cc(F)ccc23)c(Cl)c1 [Example 134, 4-(2-Chloro-4-fluoro-phenyl)-7-fluoro-2-piperazin-1-yl-quinazoline]
14.4	31	CC[C@H]1CNCCN1c1nc(-c2ccc(F)cc2F)c2ccccc2n1 [Example 165, S-4-(2,4-Difluoro-phenyl)-2-(2-ethyl-piperazin-1-yl)-quinazoline]
